Measured values published in ChEMBL document CHEMBL5500383, “Recent advances and future directions on small molecule VEGFR inhibitors in oncological conditions” (Eur J Med Chem, 2024).

Columns and labels:
HCT-116 [1] = experiment: Cytotoxicity against human HCT-116 cells assessed as reduction in cell viability incubated for 72 hrs by MTT assay; assay type: functional, cell-based; conditions: HCT-116, 72 h
MCF7 [2] = experiment: Cytotoxicity against human MCF7 cells assessed as reduction in cell viability incubated for 72 hrs by MTT assay; assay type: functional, cell-based; conditions: MCF7, 72 h
HepG2 [3] = experiment: Cytotoxicity against human HepG2 cells assessed as reduction in cell viability incubated for 72 hrs by MTT assay; assay type: functional, cell-based; conditions: HepG2, 72 h
MCF7 [4] = experiment: Antiproliferative activity against human MCF7 cells assessed as reduction in cell viability; assay type: functional, cell-based
[5] = target: Hepatocyte growth factor receptor (Homo sapiens, UniProt P08581); experiment: Inhibition of c-Met (unknown origin)
Hepatocyte growth factor receptor, sequence (P08581 whole entry): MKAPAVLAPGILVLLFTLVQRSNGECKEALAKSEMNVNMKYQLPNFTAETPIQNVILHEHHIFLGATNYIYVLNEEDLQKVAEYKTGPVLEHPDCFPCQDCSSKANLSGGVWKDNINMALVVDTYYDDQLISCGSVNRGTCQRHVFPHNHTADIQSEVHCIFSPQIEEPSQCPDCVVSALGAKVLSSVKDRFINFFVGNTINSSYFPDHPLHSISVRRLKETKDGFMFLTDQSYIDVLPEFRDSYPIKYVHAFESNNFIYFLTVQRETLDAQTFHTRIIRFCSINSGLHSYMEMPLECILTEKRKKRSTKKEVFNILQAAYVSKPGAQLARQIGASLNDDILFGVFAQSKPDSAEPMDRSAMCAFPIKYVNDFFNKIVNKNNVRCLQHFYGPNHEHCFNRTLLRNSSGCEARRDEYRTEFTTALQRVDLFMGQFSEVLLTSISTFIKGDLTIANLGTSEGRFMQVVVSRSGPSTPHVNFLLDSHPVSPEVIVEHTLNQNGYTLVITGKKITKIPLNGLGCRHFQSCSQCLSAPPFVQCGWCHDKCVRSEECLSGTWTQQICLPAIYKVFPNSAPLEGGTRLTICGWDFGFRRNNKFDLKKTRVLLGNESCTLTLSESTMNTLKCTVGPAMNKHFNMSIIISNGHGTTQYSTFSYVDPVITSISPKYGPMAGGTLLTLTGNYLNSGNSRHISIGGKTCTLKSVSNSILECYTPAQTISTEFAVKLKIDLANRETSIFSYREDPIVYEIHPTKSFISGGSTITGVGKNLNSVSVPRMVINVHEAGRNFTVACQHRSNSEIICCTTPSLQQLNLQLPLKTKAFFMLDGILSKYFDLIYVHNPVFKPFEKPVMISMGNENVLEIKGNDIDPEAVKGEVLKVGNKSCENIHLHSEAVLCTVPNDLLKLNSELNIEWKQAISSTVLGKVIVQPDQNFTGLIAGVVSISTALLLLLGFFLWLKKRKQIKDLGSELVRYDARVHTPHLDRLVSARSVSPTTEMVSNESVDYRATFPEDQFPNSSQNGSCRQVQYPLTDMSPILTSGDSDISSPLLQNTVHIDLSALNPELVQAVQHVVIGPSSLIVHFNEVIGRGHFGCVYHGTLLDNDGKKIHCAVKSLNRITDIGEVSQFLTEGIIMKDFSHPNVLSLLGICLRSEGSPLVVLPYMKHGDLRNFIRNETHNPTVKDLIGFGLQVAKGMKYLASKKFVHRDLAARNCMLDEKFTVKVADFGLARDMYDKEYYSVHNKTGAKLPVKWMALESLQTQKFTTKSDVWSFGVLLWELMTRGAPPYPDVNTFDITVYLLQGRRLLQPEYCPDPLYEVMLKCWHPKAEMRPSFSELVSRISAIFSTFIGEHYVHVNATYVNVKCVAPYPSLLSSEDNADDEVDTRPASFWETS

[6] = Cytotoxicity against human HUVEC cells assessed as reduction in cell viability by CCK-8 assay; assay type: toxicity, cell-based
[7] = target: T1, Vascular endothelial growth factor receptor 2 (Homo sapiens, UniProt P35968); experiment: Inhibition of VEGFR2 (unknown origin)
T1 sequence (P35968 whole entry): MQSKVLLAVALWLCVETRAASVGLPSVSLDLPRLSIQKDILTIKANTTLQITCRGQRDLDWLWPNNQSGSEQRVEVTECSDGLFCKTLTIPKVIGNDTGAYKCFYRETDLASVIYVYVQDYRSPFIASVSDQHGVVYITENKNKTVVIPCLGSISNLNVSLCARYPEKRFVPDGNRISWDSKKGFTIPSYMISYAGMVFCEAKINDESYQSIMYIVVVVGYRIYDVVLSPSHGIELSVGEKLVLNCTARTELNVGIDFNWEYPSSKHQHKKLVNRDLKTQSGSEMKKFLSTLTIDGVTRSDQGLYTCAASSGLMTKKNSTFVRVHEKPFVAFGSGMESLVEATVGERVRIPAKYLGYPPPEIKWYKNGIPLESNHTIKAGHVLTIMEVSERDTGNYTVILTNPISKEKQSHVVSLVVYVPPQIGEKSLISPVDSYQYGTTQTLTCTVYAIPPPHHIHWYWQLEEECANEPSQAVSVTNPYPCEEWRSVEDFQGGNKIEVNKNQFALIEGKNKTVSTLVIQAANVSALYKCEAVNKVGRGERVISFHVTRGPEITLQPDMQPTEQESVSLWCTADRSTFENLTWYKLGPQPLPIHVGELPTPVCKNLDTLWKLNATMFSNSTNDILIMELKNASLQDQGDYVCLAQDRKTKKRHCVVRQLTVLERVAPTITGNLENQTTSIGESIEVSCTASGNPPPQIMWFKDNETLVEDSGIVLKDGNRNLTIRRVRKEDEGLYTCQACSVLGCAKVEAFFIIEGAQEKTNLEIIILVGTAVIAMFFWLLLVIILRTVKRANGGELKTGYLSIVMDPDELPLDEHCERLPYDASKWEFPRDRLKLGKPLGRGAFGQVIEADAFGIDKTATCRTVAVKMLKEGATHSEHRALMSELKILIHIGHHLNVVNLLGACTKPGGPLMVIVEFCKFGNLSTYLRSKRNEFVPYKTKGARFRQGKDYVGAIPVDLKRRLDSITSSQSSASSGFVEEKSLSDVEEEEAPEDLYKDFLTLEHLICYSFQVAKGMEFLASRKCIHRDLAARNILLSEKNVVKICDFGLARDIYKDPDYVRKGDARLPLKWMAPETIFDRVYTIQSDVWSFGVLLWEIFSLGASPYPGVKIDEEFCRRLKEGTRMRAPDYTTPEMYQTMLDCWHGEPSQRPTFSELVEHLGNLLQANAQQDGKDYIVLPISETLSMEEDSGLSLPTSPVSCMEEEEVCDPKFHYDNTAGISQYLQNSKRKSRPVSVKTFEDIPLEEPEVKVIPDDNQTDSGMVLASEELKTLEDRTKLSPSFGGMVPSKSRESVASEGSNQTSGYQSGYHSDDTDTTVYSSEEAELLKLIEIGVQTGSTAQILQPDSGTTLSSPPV

MHCC97H = experiment: Antiproliferative activity against human MHCC97H cells assessed as reduction in cell viability incubated for 48 hrs by CCK-8 assay; assay type: functional, cell-based
HepG2 [8] = experiment: Antiproliferative activity against human HepG2 cells assessed as reduction in cell growth incubated for 24 hrs by MTT assay; assay type: functional, cell-based; conditions: HepG2, 24 h
MCF7 [9] = experiment: Antiproliferative activity against human MCF7 cells assessed as reduction in cell growth incubated for 24 hrs by MTT assay; assay type: functional, cell-based; conditions: MCF7, 24 h
HCT-116 [10] = experiment: Antiproliferative activity against human HCT-116 cells assessed as reduction in cell growth incubated for 24 hrs by MTT assay; assay type: functional, cell-based; conditions: HCT-116, 24 h
[11] = target: T1, Vascular endothelial growth factor receptor 2; experiment: Inhibition of human VEGFR-2 by ELISA method
HepG2 [12] = experiment: Cytotoxicity against human HepG2 cells assessed as reduction in cell growth incubated for 48 hrs by MTT assay; assay type: functional, cell-based; conditions: HepG2, 48 h
MCF7 [13] = experiment: Cytotoxicity against human MCF7 cells assessed as reduction in cell viability incubated for 48 hrs by MTT assay; assay type: functional, cell-based; conditions: MCF7, 48 h
HCT-116 [14] = experiment: Cytotoxicity against human HCT-116 cells assessed as reduction in cell growth incubated for 48 hrs by MTT assay; assay type: functional, cell-based; conditions: HCT-116, 48 h
[15] = target: T1, Vascular endothelial growth factor receptor 2; experiment: Inhibition of VEGFR2 (unknown origin) using Poly-(Glu,Tyr 4:1) peptide as substrate incubated for 1 hr by ELISA method
EA.hy 926 = experiment: Antiproliferative activity against human EA.hy 926 cells assessed as reduction in cell viability incubated for 48 hrs by MTT assay; assay type: functional, cell-based; conditions: EA.hy 926, 48 h
U-87 MG = experiment: Antiproliferative activity against human U87 cells assessed as inhibition of cell viability incubated for 72 hrs by MTT assay; assay type: functional, cell-based, U-87MG ATCC
[16] = target: T1, Vascular endothelial growth factor receptor 2; experiment: Inhibition of GST-tagged human recombinant VEGFR2
[17] = target: RAC-alpha serine/threonine-protein kinase (Homo sapiens, UniProt P31749); experiment: Inhibition of AKT1 (unknown origin)
RAC-alpha serine/threonine-protein kinase, sequence (P31749 whole entry): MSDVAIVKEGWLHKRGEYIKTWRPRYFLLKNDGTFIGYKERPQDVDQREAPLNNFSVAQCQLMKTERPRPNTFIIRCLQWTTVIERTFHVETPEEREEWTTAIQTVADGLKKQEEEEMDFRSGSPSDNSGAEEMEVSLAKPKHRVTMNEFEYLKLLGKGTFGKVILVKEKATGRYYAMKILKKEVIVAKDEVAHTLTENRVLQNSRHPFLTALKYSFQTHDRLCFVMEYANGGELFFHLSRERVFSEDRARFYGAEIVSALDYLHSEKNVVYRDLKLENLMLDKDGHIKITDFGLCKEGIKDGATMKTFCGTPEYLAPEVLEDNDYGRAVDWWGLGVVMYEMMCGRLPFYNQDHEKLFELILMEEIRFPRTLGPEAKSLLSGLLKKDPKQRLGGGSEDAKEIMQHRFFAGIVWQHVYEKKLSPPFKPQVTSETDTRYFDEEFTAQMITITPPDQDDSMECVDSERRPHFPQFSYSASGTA

PC-3 = experiment: Antiproliferative activity against human PC-3 cells assessed as cell growth inhibition incubated for 24 hrs by MTT assay; assay type: functional, cell-based; conditions: PC-3, 24 h
HepG2 [18] = experiment: Antiproliferative activity against human HepG2 cells assessed as cell growth inhibition incubated for 24 hrs by MTT assay; assay type: functional, cell-based; conditions: HepG2, 24 h
WI-38 = experiment: (§1) Antiproliferative activity against human WI-38 cells assessed as cell growth inhibition incubated for 24 hrs by MTT assay; assay type: toxicity, cell-based; conditions: wi-38
HepG2 [19] = experiment: Antiproliferative activity against human HepG2 cells assessed as inhibition of cell growth incubated for 24 hrs by MTT assay; assay type: functional, cell-based; conditions: HepG2, 24 h
MCF7 [20] = experiment: Antiproliferative activity against human MCF7 cells assessed as inhibition of cell growth incubated for 24 hrs by MTT assay; assay type: functional, cell-based; conditions: MCF7, 24 h
HCT-116 [21] = experiment: Antiproliferative activity against human HCT-116 cells assessed as inhibition of cell growth incubated for 24 hrs by MTT assay; assay type: functional, cell-based; conditions: HCT-116, 24 h
MCF7 [22] = experiment: Cytotoxicity against human MCF7 cells assessed as reduction in cell viability; assay type: functional, cell-based
[23] = as §1; assay type: toxicity, cell-based; conditions: human, WI-38 cells
[24] = Half life in human at 140 mg
[25] = Cmax in human at 140 mg; assay type: ADME
[26] = Tmax in human at 140 mg; assay type: ADME

Q: Which IC50 (HCT-116 [1]) does the source give for `CCOC(=O)c1ccc(NC(=O)c2ccc(NC(=O)CN3C(=O)S/C(=C\c4ccccc4)C3=O)cc2)cc1` here?
A: 8.99 µM

Q: And the IC50 (MCF7 [2])?
A: 7.1 µM

Q: What about the IC50 (HepG2 [3]) of the same compound?
A: 11.2 µM

Q: Which IC50 (MCF7 [4]) does the source give for `COCCOCCOCCOCCOCCOC(=O)c1cc(C(=O)OCCOCCOCCOCCOCCOC)cc(-n2cc(Cn3ncc4ccccc4c3=O)nn2)c1` here?
A: 8.84 µM

Q: Which IC50 [5] does the source give for `COCCOc1cc2ncnc(Nc3ccc(NC(=O)CC(=O)Nc4ccc(F)cc4)cc3F)c2c2c1OCCO2` here?
A: 0.0058 µM

Q: What about the IC50 [6] of the same compound?
A: 0.0008 µM

Q: And the IC50 [7]?
A: 0.0048 µM

Q: And the IC50 (MHCC97H)?
A: 0.0157 µM

Q: With `CCn1c(SCC(=O)Nc2ccc(/C(C)=N/O)cc2)nc2ccccc2c1=O` as the compound, how does the IC50 (HepG2 [8]) read?
A: 3.97 µM

Q: What about the IC50 (MCF7 [9]) of the same compound?
A: 4.83 µM

Q: What about the IC50 (HCT-116 [10]) of the same compound?
A: 4.58 µM

Q: What about the IC50 [11] of the same compound?
A: 2.5 µM

Q: Which IC50 (HepG2 [12]) does the source give for `Cc1cc(C)nc(NS(=O)(=O)c2ccc(/N=N/c3ccc(C4=NCC(=O)N(C)c5ccc(Cl)cc54)cc3)cc2)n1` here?
A: 8.98 µM

Q: What about the IC50 (MCF7 [13]) of the same compound?
A: 6.99 µM

Q: What about the IC50 (HCT-116 [14]) of the same compound?
A: 7.77 µM

Q: And the IC50 [15]?
A: 0.0001 µM

Q: Which results are given for `O=C(Nc1ccc(Oc2ccnc(C(=O)NCCCCNC(=O)C3CC4C=CC3C4)c2)cc1)Nc1ccc(Cl)c(C(F)(F)F)c1` (configuration not stated)?
A: IC50 (EA.hy 926): 0.047 µM; IC50 [7]: 0.23 µM; IC50 (U-87 MG): 63.6 µM

Q: Which IC50 [16] does the source give for `CN1CCC2=C1C1C(=O)NC(c3ccccc3)=NC1S2` (configuration not stated) here?
A: 0.126 µM

Q: And the IC50 [17]?
A: 6.96 µM

Q: And the IC50 (PC-3)?
A: 2.15 µM

Q: What about the IC50 (HepG2 [18]) of the same compound?
A: 3.11 µM

Q: What about the IC50 (WI-38) of the same compound?
A: 12.5 µM

Q: What does the source list for `C/C(=N\NC(=O)c1ccccc1O)c1ccc(NC(=O)CSc2nc3ccccc3c(=O)n2-c2ccccc2)cc1`?
A: IC50 (HepG2 [19]): 3.74 µM; IC50 (MCF7 [20]): 5 µM; IC50 (HCT-116 [21]): 6.77 µM; IC50 (HCT-116 [10]): 3.74 µM; IC50 [11]: 0.34 µM

Q: Which IC50 [7] does the source give for `Cc1ccc2oc(CCCC(=O)Nc3ccc(S(=O)(=O)NC(=O)NC4CCCCC4)cc3)nc2c1` here?
A: 0.07 µM

Q: And the IC50 (MCF7 [22])?
A: 5.5 µM

Q: For `CCOC(=O)c1c(NC(=S)Nc2cc(C)ccc2Cl)sc2c1N(C)CC2`, which IC50 (PC-3) is on record?
A: 3.12 µM

Q: What about the IC50 (HepG2 [18]) of the same compound?
A: 3.02 µM

Q: What about the IC50 at 24 h [23] of the same compound?
A: 35.3 µM

Q: Which half-life [24] does the source give for `COc1cc2nccc(Oc3ccc(NC(=O)C4(C(=O)Nc5ccc(F)cc5)CC4)cc3)c2cc1OC` [CABOZANTINIB] here?
A: 112 h

Q: What about the Cmax [25] of the same compound?
A: 554 ng/mL

Q: And the Tmax [26]?
A: 4 h
